# Assay results reported in the supplement of paper PMC10307832.
# Legend:
# Assay in all cases: relative viability (nuclei count vs DMSO), 5 days (fraction); higher = more cells survive
# Bortezomib + Pictilisib = compound: CC(C)C[C@H](NC(=O)[C@H](Cc1ccccc1)NC(=O)c1cnccn1)B(O)O [Bortezomib] + CS(=O)(=O)N1CCN(Cc2cc3nc(-c4cccc5[nH]ncc45)nc(N4CCOCC4)c3s2)CC1 [Pictilisib] (partner 1 µM)
# In short: (§1)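 For relative viability, nuclei counts in treated wells were divided by those in vehicle wells. Lung cancer cell lines had been pin-tool dosed in 1536-well plates the day after seeding and cultured for 5 days, then fixed and stained in one step (final 0.05% Triton X-100, 1% formaldehyde, 1 ug/ml Hoechst) and imaged at 4×. Doses were one drug alone or a fixed anchor-drug dose plus five library-drug doses (not always all listed) in √10 steps, and values are duplicate-plate medians.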
# Obatoclax + Pictilisib = compound: COC1=CC(c2cc3ccccc3[nH]2)=N/C1=C\c1[nH]c(C)cc1C [Obatoclax] + CS(=O)(=O)N1CCN(Cc2cc3nc(-c4cccc5[nH]ncc45)nc(N4CCOCC4)c3s2)CC1 [Pictilisib] (partner 1 µM)
# In short: as §1
# [1] = compound: CC1=CC(=NN1)NC2=CC(=NC(=N2)/C=C/C3=CC=CC=C3)N4CCN(CC4)C + Nc1ncn([C@H]2C[C@H](O)[C@@H](CO)O2)c(=O)n1 [Decitabine] (partner 2 µM)
# In short: as §1
# Obatoclax + Pemetrexed = compound: COC1=CC(c2cc3ccccc3[nH]2)=N/C1=C\c1[nH]c(C)cc1C [Obatoclax] + Nc1nc2[nH]cc(CCc3ccc(C(=O)N[C@@H](CCC(=O)O)C(=O)O)cc3)c2c(=O)[nH]1 [Pemetrexed] (partner 0.2 µM)
# In short: as §1
Cell Line,relative viability (Bortezomib + Pictilisib; first compound 0.0002 µM),relative viability (Bortezomib + Pictilisib; first compound 0.000632 µM),relative viability (Bortezomib + Pictilisib; first compound 0.002 µM),relative viability (Bortezomib + Pictilisib; first compound 0.006325 µM),relative viability (Bortezomib + Pictilisib; first compound 0.02 µM),relative viability (Obatoclax + Pictilisib; first compound 0.01 µM),relative viability (Obatoclax + Pictilisib; first compound 0.03162 µM),relative viability (Obatoclax + Pictilisib; first compound 0.1 µM),relative viability (Obatoclax + Pictilisib; first compound 0.3162 µM),relative viability (Obatoclax + Pictilisib; first compound 1 µM),relative viability ([1]; first compound 0.08 µM),relative viability ([1]; first compound 0.253 µM),relative viability ([1]; first compound 0.8 µM),relative viability ([1]; first compound 2.53 µM),relative viability ([1]; first compound 8 µM),relative viability (Obatoclax + Pemetrexed; first compound 0.01 µM),relative viability (Obatoclax + Pemetrexed; first compound 0.03162 µM),relative viability (Obatoclax + Pemetrexed; first compound 0.1 µM),relative viability (Obatoclax + Pemetrexed; first compound 0.3162 µM),relative viability (Obatoclax + Pemetrexed; first compound 1 µM)
IA-LM,0.299,0.321,0.278,0.0319,0.0054,0.345,0.326,0.315,0.113,0.0716,–,–,–,–,–,–,–,–,–,–
LC-2-ad,0.558,–,0.486,0.0865,0.104,0.497,0.563,0.602,0.357,0.154,0.821,0.809,0.744,0.463,0.187,0.268,0.285,0.261,0.264,0.285
NCI-H522,–,–,–,–,–,–,–,–,–,–,0.593,0.685,0.69,0.601,0.391,0.955,1,1.33,1.09,0.872
NCI-H727,0.34,0.345,0.329,0.192,0.106,0.33,0.456,0.701,0.339,0.253,0.515,0.699,0.882,0.793,0.412,–,–,–,–,–
NCI-H1299,0.722,0.776,0.511,0.0727,0.0315,0.74,0.937,0.637,0.447,0.129,–,–,–,–,–,–,–,–,–,–
NCI-H1563,0.68,0.622,0.655,0.538,0.486,0.615,0.639,0.644,0.655,0.634,–,–,–,–,–,0.803,0.713,0.583,0.727,0.896
NCI-H1648,–,–,–,–,–,–,–,–,–,–,0.417,0.552,0.606,0.294,0.463,0.758,0.746,1.06,0.64,0.782
NCI-H1703,0.259,0.208,0.146,0.128,0.121,0.263,0.221,0.216,0.203,0.2,–,–,–,–,–,–,–,–,–,–
NCI-H2228,0.373,0.418,0.355,0.109,0.115,0.278,0.419,0.384,0.294,0.174,–,–,–,–,–,0.317,0.308,0.367,0.304,0.274
NCI-H2342,–,–,–,–,–,–,–,–,–,–,0.753,0.774,0.662,0.703,0.641,0.836,0.775,0.683,0.641,0.757
SW 900,–,–,–,–,–,–,–,–,–,–,0.426,0.377,0.413,0.277,0.139,0.494,0.303,0.527,0.48,0.446
